Measurements from patent US20120323012A1, “4-(AZACYCLOALKYL) -BENZENE-1,3-DIOL DERIVATIVES AS TYROSINASE INHIBITORS AND THEIR SYNTHESIS AND USE THEREOF” (GALDERMA RESEARCH & DEVELOPMENT, priority 2009, published 2012).

Columns and labels:
[1] = molecular target: T1, tyrosinase (Mus musculus, UniProt P11344); test: Tyrosinase activity inhibition test (B16F1 cell lysate, L-tyrosine/MBTH, 520 nm); type: biochemical, murine; details: lysate of B16F1 cells, 6 hours incubation at 37° C.; read-out: Tyrosine hydroxylase/Dopa oxidase IC50
T1 construct: the supernatant obtained constituted the cell lysate used as the source of tyrosinase in the enzymatic test; endogenous in cells; host or cells: B16F1 murine melanoma cells, stimulated with alpha-MSH; detergent lysate supernatant
T1 sequence (P11344 19-533): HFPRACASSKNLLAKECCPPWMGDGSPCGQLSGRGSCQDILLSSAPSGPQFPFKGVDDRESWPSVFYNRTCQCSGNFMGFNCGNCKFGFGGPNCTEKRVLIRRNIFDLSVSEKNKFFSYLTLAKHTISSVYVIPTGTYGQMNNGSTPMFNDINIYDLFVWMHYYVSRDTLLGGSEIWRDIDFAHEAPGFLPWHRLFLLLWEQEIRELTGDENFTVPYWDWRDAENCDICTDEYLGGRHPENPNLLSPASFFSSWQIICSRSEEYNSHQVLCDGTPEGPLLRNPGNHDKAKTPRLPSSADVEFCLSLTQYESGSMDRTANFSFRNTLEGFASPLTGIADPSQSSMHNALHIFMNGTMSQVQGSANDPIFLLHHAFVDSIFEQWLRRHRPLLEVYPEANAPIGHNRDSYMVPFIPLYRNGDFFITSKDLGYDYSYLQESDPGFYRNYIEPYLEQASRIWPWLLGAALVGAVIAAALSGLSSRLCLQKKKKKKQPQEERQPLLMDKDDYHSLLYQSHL
Method: The activity of the inhibitors was measured using a lysate of B16F1 cells (murine melanoma line). In the presence of L-tyrosine substrate, the tyrosinase present in these cells catalyses the hydroxylation of L-tyrosine to L-DOPA then oxidation of the L-DOPA to dopaquinone. In the presence of MBTH (3-methyl-2-benzo-thiazolinone hydrazone), dopaquinone is trapped to form a pink complex which absorbs at 520 nm.
The B16F1 cells were cultivated in DMEM medium+10% foetal calf serum+10^−9 M of αMSH for 4 days at 37° C. under 7% CO2. They were treated with trypsin, washed with PBS, counted and centrifuged. The pellet was taken up in an amount of 10^7 cells/mL in lysis buffer (sodium phosphate, 10 mM pH 6.8-Igepal 1%) and the suspension was treated with ultrasound for 10 seconds. After centrifuging for 30 minutes at 4000 rpm, the supernatant obtained constituted the cell lysate used as the source of tyrosinase in the enzymatic test.
The tests were carried out in duplicate in 384-well plates with a total volume of 50 μl. Each well contained: […]
The plate was incubated at 37° C. and a spectrographic recording was produced at 520 nm after 6 hours incubation. In order to compensate for any absorption by the products, a corrected absorbance was used (absorbance at time 6 h−absorbance at time zero). […]

[2] = test system: MNT1 human melanoma cells; test: Melanogenesis inhibition test (14C-thiouracil incorporation normalized by 3H-leucine); type: cell-based; details: MNT-1, 24 h incubation, 14C incorporation normalized by 3H incorporation
Method: (§1) The inhibition of melanogenesis was measured in MNT1 human melanoma cells using a protocol adapted from Reigner et al, Cell Mol Biol (1999) 45: 969-980. The test was based on the concomitant incorporation of 2 radiolabelled tracers: ^14C-thiouracil is incorporated into neosynthesized melanin and reflects melanogenesis, while ^3H-leucine is incorporated into proteins and reflects cell viability and, as a result, the toxicity of the test compounds.
(§2) The MNT1 cells were plated into 96-well plates in the presence of the test compounds and radioisotopes. After 24 h incubation at 37° C., the cells were washed and the quantity of the 2 radioisotopes was measured. The test compounds were dose-response tested in order to calculate the IC50 inhibition of melanogenesis on the basis of the ^14C incorporation which was normalized by the ^3H incorporation. A cell toxicity IC50 was also calculated on the basis of the ^3H incorporation.

[3] = Cell toxicity (3H-leucine incorporation) in the melanogenesis inhibition test; type: cell-based; details: human, MNT1 human melanoma cells, 24 h incubation
Method: as §1, §2

| SMILES | IC50 [1] | IC50 [2] | IC50 at 24 h [3] | melting point |
| --- | --- | --- | --- | --- |
| CCCCc1ccc(O)cc1O [4-butylresorcinol (Rucinol), 4-butylresorcinol, reference compound] | 3 µM | 15 µM | 55 µM | – |
| O=S(=O)(Cc1ccccc1)N1CCC(c2ccc(O)cc2O)CC1 [Compound 1, 4-(1-phenylmethanesulphonylpiperidin-4-yl)-benzene-1,3-diol] | – | 0.2 µM | > 999 µM | 207 to 208 °C |
| Cc1ccc(S(=O)(=O)N2CCC(c3ccc(O)cc3O)CC2)cc1 [Compound 2, 4-[1-(toluene-4-sulphonyl)piperidin-4-yl]-benzene-1,3-diol] | 1.5 µM | – | – | – |
